The values that follow come from patent US20060014812A1, “Use of estrogen related receptor-modulating aryl ethers” (priority 2004, published 2006).

SMILES strings stand for the structures.

This assay concerns the target T1, ligand binding domain of ERR-α (aa 183-424) (Homo sapiens, UniProt P11474).
T1 construct: His tag (N); thrombin cleavage site (N); made in house; host or cells: E. coli BL21(DE3+)
T1 sequence (P11474 183-423 limits assumed): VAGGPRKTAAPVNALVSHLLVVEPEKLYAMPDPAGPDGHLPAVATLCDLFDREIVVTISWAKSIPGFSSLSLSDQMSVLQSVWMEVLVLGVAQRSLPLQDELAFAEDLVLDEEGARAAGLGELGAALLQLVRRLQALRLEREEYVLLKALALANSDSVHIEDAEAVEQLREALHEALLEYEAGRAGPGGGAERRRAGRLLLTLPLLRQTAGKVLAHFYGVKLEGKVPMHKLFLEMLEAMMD
Put plainly: ThermoFluor thermal-shift binding affinity screen against ERR-α ligand binding domain. The note with it: 100 μM test compound, 0.1 mg/mL ERR-α, pH 7.6, Kd estimated from melting temperature shift at reference temperature, read-out: TF Kd. Here is the method: The ligand binding domain of ERR-α (aa 183-424) was subcloned in frame with the N-terminal His tag and the cleavable thrombin site in pET28. The protein was expressed in BL21(DE3^+) following induction with 100 μM IPTG at 16° C. Cells were harvested after 16 hours (h) of induction and lysed in 20 mM Tris pH 7.5, 500 mM NaCl, 5 mM imidazole, 5% glycerol, protease inhibitor cocktail (-EDTA) and 2 mM β-ME. Insoluble material was removed by centrifugation at 40,000×g for 1 hr. Clarified homogenate was applied on a Ni-NTA column and after applying an imidazole gradient the protein was eluted. The protein was further purified on size exclusion chromatography to an apparent homogeneity of 95% as judged by SDS-PAGE chromatography.
Binding affinities of compounds were determined by screening against the ligand binding domain of ERR-α using ThermoFluor® technology (U.S. Pat. No. 6,020,141 and U.S. Pat. No. 6,036,920, and Journal of Biomolecular Screening 6 (6), […], pgs 429-440). Assay plates were prepared by dispensing 2 μL of a protein-dye solution and 2 μL of the test compound in a 384-well plate. The conditions used in the screen were: 0.1 mg/mL ERR-α, 25 mM Na-phosphate buffer at pH 7.6, 200 mM NaCl, 10% glycerol, 16 μM ANS, 2% DMSO and the final concentration of test compound was 100 μM. Finally 1 μL of mineral oil was dispensed on top to prevent evaporation during the high throughput screen (HTS). ThermoFluor® is an HTS assay that measures protein unfolding based on fluorescence detection of the denatured form of the protein. The reporter for the protein unfolding event is the environmentally sensitive dye ANS that is incorporated in the screening buffer. During a typical experiment the 384-well plate is heated at a ramping rate of 1° C./min and the thermal unfolding of the protein is monitored at 1° C. intervals by measuring fluorescence changes detected through a CCD camera. Captured images are integrated and a melting curve is generated that relates fluorescence to fraction of unfolded protein as a function of temperature. For the ERR-α screen, data were collected from 30 to 80° C. at 1° C. intervals and the protein melted under the screening conditions with a characteristic melting temperature, Tm, of 52.1° C. Hits were identified from the screen by measuring an increase in the melting temperature of the protein.
In order to estimate binding affinities, it was taken into account that the oligomeric state of ERR-α, which is a dimer (N2), and that of a single ligand (Lf) can interact per monomer subunit with equal affinity. The melting curve for such a system is described by the following three equilibria: [formula] The first equilibrium describes the denaturation of ERR-α dimers; the second equilibrium describes the dissociation of the first ligand from the single ligand occupied ERR-α dimers (N2L); and the third equilibrium describes the dissociation of the second ligand from the fully occupied ERR-α dimers (N2L2).
Following the derivations of Brandts and Lin (Biochemistry, 29, 6967, 1990) the dissociation constants for the ligands (Kd1^t^m) can be determined at T=Tm for any ligand concentration Lt by solving numerically the conservation of mass equations: [formula] and Ku is in the unfolding equilibrium constant for ERR-α dimers that is calculated from the melting curve of the protein in the absence of ligand as described by Pantoliano et al. (J. Biomolecular Screening, 6, 429, 2001) and Bowie & Sauer (Biochemistry, 28, 7139, 1989).
To compare dissociation constants at a common reference temperature, Tref, the following equation was used: [formula] where • Kd^ref=is the dissociation constant of the ligand at a reference temperature Tref • ΔHb^ref=is the binding enthalpy of the ligand to the protein at a reference temperature Tref. […]
As to `COc1ccc(Oc2ccc(C=C3SC(N)=NC3=O)cc2)cc1` [Example 9, 2-Amino-5-[4-(4-methoxy-phenoxy)-benzylidene]-thiazol-4-one], the Kd is 24.7 µM. The same measure for `COc1cc(/C=C2\SC(=O)NC2=O)ccc1Oc1ccc(C(F)(F)F)cc1[N+](=O)[O-]` [Example 10, 5-[3-Methoxy-4-(2-nitro-4-trifluoromethyl-phenoxy)-benzylidene]-thiazolidine-2,4-dione]: 0.234 µM; for `COc1cc(/C=C2\SC(=O)NC2=O)cc(Cl)c1Oc1ccc(C(F)(F)F)cc1[N+](=O)[O-]` [Example 13, 5-[3-Chloro-5-methoxy-4-(2-nitro-4-trifluoromethyl-phenoxy)-benzylidene]-thiazolidine-2,4-dione]: 79.5 µM; for `O=C1NC(=O)/C(=C/c2ccc(Oc3ccc(C(F)(F)F)cc3[N+](=O)[O-])cc2)S1` [Example 14, 5-[4-(2-Nitro-4-trifluoromethyl-phenoxy)-benzylidene]-thiazolidine-2,4-dione]: 0.588 µM. The value for `COc1ccc(Oc2ccc(/C=C3\SC(=O)NC3=O)cc2)cc1` [Example 16, 5-[4-(4-Methoxy-phenoxy)-benzylidene]-thiazolidine-2,4-dione] was 3.53 µM; that for `CCOC(=O)CN1C(=O)S/C(=C\c2ccc(Oc3ccc(C(F)(F)F)cc3[N+](=O)[O-])c(OC)c2)C1=O` [Example 17, {5-[3-Methoxy-4-(2-nitro-4-trifluoromethyl-phenoxy)-benzylidene]-2,4-dioxo-thiazolidin-3-yl}-acetic acid ethyl ester] was 4.86 µM; that for `COC(=O)c1ccc(Oc2ccc(/C=C3\SC(=O)NC3=O)cc2OC)c([N+](=O)[O-])c1` [Example 18, 4-[4-(2,4-Dioxo-thiazolidin-5-ylidenemethyl)-2-methoxy-phenoxy]-3-nitro-benzoic acid methyl ester] was 0.0692 µM. Regarding `CCCCN1C(=O)S/C(=C\c2ccc(Oc3ccc(C(F)(F)F)cc3[N+](=O)[O-])c(OC)c2)C1=O` [Example 19, 3-Butyl-5-[3-methoxy-4-(2-nitro-4-trifluoromethyl-phenoxy)-benzylidene]-thiazolidine-2,4-dione], the Kd is 2.7 µM.

Take `O=C1NC(=O)/C(=C/c2ccc(Oc3ccccc3)cc2)S1` [Example 20, 5-(4-Phenoxy-benzylidene)-thiazolidine-2,4-dione]: the Kd was 9.5 µM. For `O=C1NC(=O)/C(=C\c2cccc(Oc3cccc(Cl)c3)c2)S1` [Example 21, 5-[3-(3-Chloro-phenoxy)-benzylidene]-thiazolidine-2,4-dione], the Kd was above 200 µM. Take `COc1cc(C=C(C#N)C#N)ccc1Oc1ccc(C(F)(F)F)cc1[N+](=O)[O-]` [Example 22, 2-[3-Methoxy-4-(2-nitro-4-trifluoromethyl-phenoxy)-benzylidene]-malononitrile]: the dissociation constant Kd was 5.06 µM. `COc1cc(/C=C(\C#N)S(=O)(=O)c2ccccc2)ccc1Oc1ccc(C(F)(F)F)cc1[N+](=O)[O-]` [Example 23, 2-Benzenesulfonyl-3-[3-methoxy-4-(2-nitro-4-trifluoromethyl-phenoxy)-phenyl]-acrylonitrile]: the Kd is 14.6 µM.

For `CCOC(=O)/C(C#N)=C/c1ccc(Oc2ccc(C(F)(F)F)cc2[N+](=O)[O-])c(OC)c1` [Example 24, 2-Cyano-3-[3-methoxy-4-(2-nitro-4-trifluoromethyl-phenoxy)-phenyl]-acrylic acid ethyl ester], the dissociation constant Kd was 2.54 µM. Regarding `COc1cc(/C=C(\C#N)c2cccs2)ccc1Oc1ccc(C(F)(F)F)cc1[N+](=O)[O-]` [Example 25, 3-[3-Methoxy4-(2-nitro4-trifluoromethyl-phenoxy)-phenyl]-2-thiophen-2-yl-acrylonitrile], the Kd is 7.17 µM. For `COc1cc(/C=C(\C#N)c2nc3ccccc3[nH]2)ccc1Oc1ccc(C(F)(F)F)cc1[N+](=O)[O-]` [Example 26, 2-(1H-Benzoimidazol-2-yl)-3-[3-methoxy-4-(2-nitro-4-trifluoromethyl-phenoxy)-phenyl]-acrylonitrile], the Kd is 15.2 µM.
